The target in one data set is GR complex. In words: modulation of [35S]TBPS binding in rat cerebral cortex P2 homogenate. The note with it: for IC50: concentration of compounds to inhibit 50% of control [35S]TBPS binding, 2 nM [35S]TBPS, 25°C, 90 minutes, no unit printed; for IMAX: maximum inhibition of [35S]TBPS binding, I* = Inactive. Details: species or system Sprague-Dawley rats; IMAX: unit not given here. In a few lines:
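Rat (male Sprague-Dawley) cortical P2 homogenate, 0.5 mg protein, in 50 mM Na/K phosphate pH 7.4, 200 mM NaCl, incubated 90 min at 25° C with 2 nM [35S]TBPS plus GABA and (+)bicuculline, compounds added in DMSO. Filter-bound radioactivity counted; nonspecific binding defined with […].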

Data set [1] has as its system metrazol induced convulsions. In words: animal or person. The class given is in vivo, mice. The note with it: for % Protected: 10 mg/kg.
Data set [2] has as its system maximal electroshock. In words: maximal electroshock test. The note with it: Mus musculus, ip, 20% hydroxypropyl-β-cyclodextrin in water. The class given is in vivo, mice. An excerpt:
The anticonvulsant tests are similar to that described above. […]

Data set [3] relates to mice. Put plainly: light/dark transition test. The note with it: IP. Type of data set: in vivo, N.I.H. Swiss-Webster mice. An excerpt: The light/dark transition test (Crawley and Goodwin, Pharmacol. Biochem. Behav. 13:67-70 1980) is based on the observation that rodents naturally tend to explore novel environments, but open, brightly lit arenas are aversive to the rodents and inhibit exploratory behavior (Christmas and Maxwell, Neuropharmacol. 9:17-29 1970; File, J. Neurosci. Meth. 2:219-238 1980).
Male N.I.H. Swiss-Webster mice (Harlan, Harlan, Indianapolis, IN) weighing 15-20 g were housed four per cage in polyethylene cages with sawdust bedding. The colony room was environmentally controlled (22°C) with a 12 hr light/dark cycle (0600-1800 hr). Food and water were available ad libitum, except during testing. The experiments were run from 0700-1500 hr and groups were counterbalanced for time of day effects. Mice were only administered drug or vehicle once.
The method used was a modification of methods previously described (Wieland et al., Br. Res. 565:263-268 (1991)). The apparatus included two 2-compartment automated test chambers (Model RXYZCM16, Omnitech Electronics, Columbus, OH). The open compartment was connected to the enclosed compartment via a 7.5 x 7.5 cm passageway. The open compartment was brightly lit using a 200 W incandescent light bulb. The experimental room was kept dark. Interruptions of the infrared beams in either chamber were automatically recorded by being linked to a computer through a Digiscan Analyzer (Omnitech Electronics) and the data was analyzed using the Integrated Lab Animal Monitoring System (Omnitech Electronics).
N.I.H. Swiss-Webster mice were administered vehicle or test drug intraperitoneally (IP), 10 min later they were placed in the center of the lit compartment. The number of transitions between the lit and dark chambers, total activity in the lit chamber and the time spent in the lit chamber were measured during a 10 min test period.

Data set [4] has as its system mice. Put plainly: elevated plus-maze. Type of data set: in vivo, N.I.H. Swiss-Webster mice. In a few lines:
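Male Swiss-Webster mice (15-20 g), dosed once with drug or vehicle, were placed on an elevated plus-maze 10 min post-injection for 5 min. Open-arm entries and open-arm time recorded, each as a percentage of total arm entries or time; center time excluded.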

The test system of data set [5] is metrazol induced convulsions. The note with it: cited from earlier work.
Data set [6] concerns maximal electroshock. The note with it: cited from earlier work.
The test system of the next data set is (+)bicuculline. The note with it: cited from earlier work.
For a further data set, the system named is picrotoxin. As to conditions: cited from earlier work.
For data set [7], the system named is mice. The note with it: Rotorod; data from Swinyard & Woodhead 1982; cited from earlier work. In general terms: Falling from the rotarod earlier than controls is read as motor impairment.
In the next data set the test system is strychnine. As to conditions: strychnine administered i.v.; data from Worms et al. 1982; cited from earlier work.

The structures appear in SMILES notation. Read-outs that look alike come from different tables or passages of the source.

The term IC50 denotes the point on the concentration scale where inhibition reaches its midpoint. In general, ED50 refers to the dose that gives a 50% effect, or the effect in half of the subjects.

`C[C@]12CC[C@@H](O)C[C@@H]1CC[C@@H]1[C@@H]2CC[C@]2(C)[C@@H](C(=O)CO)CC[C@@H]12` [3α,21-dihydroxy-5α-pregnan-20-one, reference compound]: on GR complex, the IC50 amounted to 0.076 µM and the IMAX was determined as 100. In addition, the “% Protected” value in data set [1] (IP, 50% hpbcd, 10 minutes prior to metrazol (85 mg/kg)) is recorded as 87.5%. Moreover, the ED50 in [1] (Mus musculus, metrazol s.c., steroid i.p., 20% hydroxypropyl-β-cyclodextrin in water) is 8.1 mg/kg. This compound returned an ED50 with maximal electroshock [2] of 26.7 mg/kg.

As for `CC(=O)[C@H]1CC[C@H]2[C@@H]3CC[C@@H]4C[C@H](O)CC[C@]4(C)[C@H]3CC[C@]12C` [3α-Hydroxy-5β-pregnan-20-one, reference compound], the activity entry with mice [3] (10 & 20 mg/kg, compared to control groups) is on record as “significant (p < 0.01) increases”. In addition, the “number of transitions between the dark box and the light box” value in the data set with mice [3] (at doses tested, versus control (Dunnett's t-test)) is recorded as “significantly increased”. For the same compound, the “entries into the open-arms” value with mice [4] (5 mg/kg (p ≤ 0.05)) was “significant increases”. Moreover, in the data set on mice [4] (10 mg/kg (p ≤ 0.01)), the “entries into the open-arms” value is “significant increases” and the “time spent on the open-arms” value is “significant increases”.

Take `O=C1CN=C(c2ccccc2Cl)c2cc([N+](=O)[O-])ccc2N1` [Clonazepam]: the “ED50 MTZ” value in data set [5] (metrazol, data from Swinyard & Woodhead 1982, NP = no protection) is 0.009 mg/kg. The “ED50 MES” value in the data set on maximal electroshock [6] (data from Swinyard & Woodhead 1982) is 93 mg/kg. Also, the “ED50 BIC” value in the data set on (+)bicuculline (bicuculline, data from Swinyard & Woodhead 1982, NP = no protection) was 0.0086 mg/kg. In addition, in the data set with picrotoxin (picrotoxin, data from Swinyard & Woodhead 1982, NP = no protection), the “ED50 PICRO” value was 0.043 mg/kg. Also, the “ED50 RR” value in the data set with mice [7] was 0.184 mg/kg.

As to `CCC1(c2ccccc2)C(=O)NC(=O)NC1=O` [Phenobarbital], in the data set on mice [7], the “ED50 RR” value is 69 mg/kg.

For the compound `NC(=O)CCC/N=C(\c1ccc(Cl)cc1)c1cc(F)ccc1O` [Progabide], in data set [5] (metrazol administered i.v., data from Worms et al. 1982), the “ED50 MTZ” value is 30 mg/kg. The “ED50 MES” value with maximal electroshock [6] (data from Worms et al. 1982) was 75 mg/kg. Moreover, in the data set on (+)bicuculline (bicuculline administered i.v., data from Worms et al. 1982), the “ED50 BIC” value was 30 mg/kg. Moreover, in the data set on picrotoxin (picrotoxin administered i.v., data from Worms et al. 1982), the “ED50 PICRO” value was 105 mg/kg. In addition, in the data set on strychnine, the “ED50 STR” value is 75 mg/kg.

On to `C#C[C@@]1(O)CC[C@@]2(C)[C@H](CC[C@@H]3[C@@H]2CC[C@]2(C)[C@@H](C(=O)COC(=O)CCC(=O)O)CC[C@@H]32)C1` [Sodium 3α,21-dihydroxy-3β-ethynyl-5β-pregnan-20-one 21-hemisuccinate], for which the soluble in water is > 20 mg/mL. At GR complex, the IC50 is 0.54 µM and the IMAX is recorded as 102. The “% Protected” value in data set [1] (mouse, in vivo, ip) turned out to be 50%. Besides, the “% Control” value with mice [4] (PO, water, 10 mg/kg) is recorded as 159%.

The values above are taken from patent publication EP0808325B1, “[…] […] SERIES FOR […] GABA RECEPTOR” (priority 1994, dated 1996).
